# Assay results taken from EP2060564A1, “Non-peptidic promoters of apoptosis” (Ludwig-Maximilians-Universität München, priority 2007, dated 2009).
# Where “and” joins values, the source holds several entries; their conditions need not be identical. Identical values can stand only once.
# How the values were obtained:
# [1] = tested on: Human leukemia Jurkat T cells; assay: Quantification of apoptosis (Nicoletti, PI staining, flow cytometry) in Jurkat cells; type: cell-based; conditions: mean value and standard deviation (C.I.95), n = 3
# Experimental: Cell Culture. Human leukemia Jurkat T cells (clone J16), Jurkat T-cells stably transfected with either empty vector (Jurkat vector, pBabe Jurkat) or XIAP (Jurkat-XIAP) as well as the BIR-3 domain only (BIR-3-sp-RING-Jurkat) (kindly provided by Dr. Colin Duckett at the University of Michigan) were cultured (37°C and 5% CO2 in RPMI 1640 containing 2 mM L-glutamine (PAN Biotech, Aidenbach, Germany) supplemented with 10% FCS gold (PAA Laboratories, Cölbe, Germany) and 1% Pyruvat (Sigma Deisenhofen, Germany).
# (§1) Detection an Quantification of Apoptosis. Quantification of apoptosis was performed according to Nicoletti et al. (J Immunol. Methods (1991) 139, 271-279). Briefly, cells were incubated for 24 h in a hypotonic buffer (0.1% sodium citrate, 0.1% Triton-X-100 and 50 µg/ml PI) and analyzed by flow cytometry on a FACSCalibur (Becton Dickinson, Heidelberg, Germany). Nuclei to the left of the G1-peak containing hypodiploid DNA were considered apoptotic.
# Compounds were first tested for their apoptotic potential in Jurkat cells alone as well as in combination with sub-optimal concentrations of etoposide. […] Similar results were obtained for compound II-1 (55.8% apoptotic cells). Table 1: Percentage of apoptotic Jurkat cells measured after application of medium control, 0.75 µM etoposide, 25 µM test substance, and a mixture of 0.75 µM etoposide and 25 µM test substance, respectively.a
# [2] = tested on: Jurkat cells overexpressing full-length XIAP or BIR-3/Ring; assay: Quantification of apoptosis in Jurkat cell lines overexpressing XIAP or BIR-3/Ring; type: cell-based, Human; conditions: wild type Jurkat cells and Jurkat cells overexpressing full-length XIAP or BIR-3/Ring; with low dose of etoposide (Figure 1)
# Experimental: Figure 1: Compound I-1 sensitizes different Jurkat cell lines towards etoposide-induced apoptosis. Compound I-1 was tested in wildtype human leukemia Jurkat T cells (A), as well as in Jurkat cells stably transfected with empty vector (B), full-length XIAP overexpressing Jurkat cells (C) or the […] domain overexpressing Jurkat cells (D). Cell death was evaluated as described under "Materials and Methods". Bars, the mean ± SE of three independent experiments performed in triplicate. *** P<0.001 (Anova/Bonferroni), n.s., not significant.
# Cell Culture. […]
# as §1, with “Nuclei to the left of the G1-peak containing hypodiploid DNA were considered apoptotic.” left out
# Wildtype Jurkat cells = assay: Clonogenic assay; type: cell-based, Human; conditions: 1h with 25µM compound and 500nM etoposide; colonies scored after 7 days (Figure 2)
# Experimental: (§2) Figure 2: Compound I-1 sensitizes to a reduction of etoposide-induced clonogenic survival. Wild type Jurkat cells were left untreated (A) or treated for 1h with 25µM of compound I-1 (B), 500nM etoposide (C) or a combination of both (D). After replacement into fresh methylcellulose medium, cells were incubated for 7 days. Afterwards colony number was counted (E). Bars, the mean ± SE of three independent experiments. *** P<0.001 (Anova/Bonferroni). Figure 3: Compound I-1 increases initiator caspase activities. Wild type Jurkat cells were left untreated or treated with 25µM of compound I-1, 500nM etoposide or a combination of both for the indicated time periods. Fluorescence measurements were performed for caspase-9 (A) and caspase-3 (B). Protein concentration was used for normalization. Bars, the mean ± SE of three independent experiments performed in triplicate. *** P<0.001 (Anova/Bonferroni).
# Clonogenic assay. Wildtype Jurkat cells were left untreated or treated for 1h with 25µM test compound, 500nM etoposide or a combination of both. Subsequently, cells were washed with PBS and resuspended in culture medium (5x10^5 cells/ml). Cell suspensions were diluted 1:10 with methylcellulose (0.52%) medium containing 40% FCS. Cells were seeded in 96-well plates (100 µl) and colonies were scored after 7 days of culture.
# caspase-9 = assay: Caspase-9 activity assay (Ac-LEHD-AFC substrate); type: cell-based, Human; conditions: 25µM compound with 500nM etoposide, wild type Jurkat cells (Figure 3)
# Experimental: as §2
# (§3) Caspase-9/3 activity assay. Caspase-9/3 activity was measured using caspase-9(Ac-LEHD-AFC) or caspase 3(Ac-DEVD-AFC) substrates (both from Bachem AG, Bubendorf, Germany). […] The reading was performed in a plate-reading multifunction photometer (SPECTRAFLUOR PLUS, Tecan, Crailsheim, Germany). The activity was calculated from the difference between fluorescence in the 0 point and after 1h (for caspase-3) or after 3h (for caspase-9). […]
# caspase-3 = assay: Caspase-3 activity assay (Ac-DEVD-AFC substrate); type: cell-based, Human; conditions: 25µM compound with 500nM etoposide, wild type Jurkat cells (Figure 3)
# Experimental: as §2, §3
# [3] = tested on: caspase-9, caspase-3 and PARP; assay: Western Blot analysis of caspase-9, caspase-3 and PARP cleavage; type: cell-based, Human; conditions: 25µM compound with 500nM etoposide, wild type Jurkat cells, time dependent (Figure 4)
# Experimental: Figure 4: Compound I-1 activates initiator caspases and induces PARP cleavage. Wild type Jurkat cells were left untreated or treated with 25µM of compound I-1, 500nM etoposide or a combination of both for the indicated time periods. Expression of caspase-9, caspase-3 and PARP was assessed by Western Blot analysis. Cleavage products are indicated by arrows. Ponceau S was used as loading control. A representative experiment out of three independent experiments is shown.
# Western Blot Analysis. Cells were collected by centrifugation, washed with ice-cold PBS and lysed in 1% Triton X-100, 0.15 M NaCl and 30 mM Tris-HCl pH 7.5 with the protease inhibitor complete™ (Roche, Mannheim, Germany) for 30 min. Lysates were centrifuge at 10,000xg for 10 min at 4°C. Equal amounts of protein were separated by SDS-PAGE (12% for XIAP) transferred to polyvinylidene difluoride membranes (Immobilon-P™, Millipore, Eschborn, Germany). Equal protein loading was controlled by coomassie staining of gels. Membranes were blocked with 5% fat-free milk powder in PBS containing 0.05% Tween-20 (1 h) and incubated with specific antibodies against XIAP (mouse antibody IgG1, clone 28, BD Transduction Laboratories, Heidelberg, Germany) overnight at 4°C. […]
# XIAP = target: T1, XIAP (Homo sapiens, UniProt P98170); assay: Western Blot analysis of XIAP protein level; type: cell-based; conditions: 25µM compound alone as well as in combination with 500nM etoposide; 16 and 24 h (Figure 5)
# T1 construct: endogenous in cells
# T1 sequence (P98170 whole entry): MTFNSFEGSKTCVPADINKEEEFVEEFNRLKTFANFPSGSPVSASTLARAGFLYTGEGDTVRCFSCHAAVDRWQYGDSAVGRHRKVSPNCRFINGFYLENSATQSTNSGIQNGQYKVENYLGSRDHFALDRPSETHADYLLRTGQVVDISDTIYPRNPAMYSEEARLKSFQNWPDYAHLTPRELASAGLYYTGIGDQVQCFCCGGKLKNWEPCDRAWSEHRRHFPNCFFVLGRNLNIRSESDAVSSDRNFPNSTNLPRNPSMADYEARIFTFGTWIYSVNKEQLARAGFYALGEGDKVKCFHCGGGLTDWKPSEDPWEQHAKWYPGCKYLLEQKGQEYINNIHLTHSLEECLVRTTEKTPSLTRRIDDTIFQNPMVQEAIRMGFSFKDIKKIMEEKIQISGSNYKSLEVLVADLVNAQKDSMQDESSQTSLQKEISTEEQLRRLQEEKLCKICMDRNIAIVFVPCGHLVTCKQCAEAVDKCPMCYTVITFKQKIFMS
# Experimental: Figure 5: XIAP protein level is reduced by compound I-1. Cells were left untreated (CO) or treated with 25µM of compound I-1, 500nM etoposide or with combination of both for the indicated time periods. XIAP protein level was detected by Western Blot analysis. Ponceau S was used as loading control. A representative experiment out of three independent experiments is shown.
# Western Blot Analysis. Cells were collected by centrifugation, washed with ice-cold PBS and lysed in 1% Triton X-100, 0.15 M NaCl and 30 mM Tris-HCl pH 7.5 with the protease inhibitor complete™ (Roche, Mannheim, Germany) for 30 min. Lysates were centrifuge at 10,000xg for 10 min at 4°C. Equal amounts of protein were separated by SDS-PAGE (12% for XIAP) transferred to polyvinylidene difluoride membranes (Immobilon-P™, Millipore, Eschborn, Germany). Equal protein loading was controlled by coomassie staining of gels. Membranes were blocked with 5% fat-free milk powder in PBS containing 0.05% Tween-20 (1 h) and incubated with specific antibodies against XIAP (mouse antibody IgG1, clone 28, BD Transduction Laboratories, Heidelberg, Germany) overnight at 4°C. Specific proteins were visualized by secondary antibodies conjugated to horseradish peroxidase and the ECL Plus™ Western Blotting detection reagent (Amersham Biosciences, Freiburg, Germany). […]
# [4] = Etoposide 0.75µM and Substance 25µM
caspase-9 activity induced by etoposide (caspase-9),caspase-3 activity induced by etoposide (caspase-3),SMILES,"Percentage of apoptotic Jurkat cells [1, 4]",Percentage of apoptotic Jurkat cells ([1]; Substance 25µM alone) [%],apoptosis induced by subtoxic concentrations of etoposide [2],clonogenic survival of etoposide treated Jurkat cells (Wildtype Jurkat cells),cleavage of caspase-9 and -3 proforms as well as PARP induced by etoposide [3],XIAP protein level (XIAP),Percentage of apoptotic Jurkat cells ([1]; Etoposide 0.75µM alone)
significantly increased,significantly increased,CCc1cccc(CC)c1NC(=O)CN1CCC(NC(=O)c2cccc(F)c2)CC1 [Compound I-1],65.7% and 65.74±6.0%,13.16±2.28,potentiates apoptosis induced by subtoxic concentrations of etoposide,sensitizes for reduction of clonogenic survival of etoposide treated Jurkat cells,strong impact of compound I-1 on cleavage of caspase-9 and -3 proforms as well as PARP,able to reduce XIAP protein after 16 and 24 h,
,,"COc1cc([C@@H]2c3cc4c(cc3[C@@H](O[C@@H]3O[C@@H]5CO[C@@H](C)O[C@H]5[C@H](O)[C@H]3O)[C@H]3COC(=O)[C@H]23)OCO4)cc(OC)c1O [Etoposide, reference compound]",,,,,,,30.66±9.89% and 31.31±2.74%
,,NNC(=O)CNC(c1ccccc1)c1cc(Br)ccc1NC(=O)c1ccccc1Br (centres unmarked) [II-1],55.8% and 55.82±12.23%,10.69±1.25,,,,,
